Data taken from patent publication US8545830B2, “Multi-functional polymeric materials and their uses” (University of Tennessee Research Foundation, priority 2003, dated 2013).

Test: In vitro release of model drugs methylene blue and BSA from NIPAAm-co-Dex-lactateHEMA hydrogel
Assay type: physicochemical
Settings: methylene blue from NIPAAm-co-Dex-lactateHEMA gel 5/4 (FIG. 9), PBS pH 7.4, 37° C.
Procedure: To test the potential of the developed hydrogels as drug release devices, two model drugs (22.5 mg) were loaded during the hydrogel synthesis, which were methylene blue and bovine serum albumin (BSA), representing small molecules and protein drugs, respectively. BSA- or methylene blue-loaded dry gels were immersed in a certain volume of PBS (pH 7.4) at 25 or 37° C. At selected time points, small volume of samples were taken and tested for solute concentration. The same volume of fresh PBS (pH 7.4) was replaced to maintain a constant volume of release medium. Concentration of methylene blue was measured by a UV spectrophotometer at 668 nm. Concentration of BSA was determined through Bradford protein assay.

CN(C)c1ccc2nc3ccc(=[N+](C)C)cc-3sc2c1 [methylene blue]
loaded drug released in initial burst: more than 70% | time after which drug release reached a stable stage: three
